Assay results published in patent US8278265B2, “Methods, kits and compositions comprising crotamine” (Fundacao de Amparo a Pesquisa do Estado de Sao Paulo—FAPESP, priority 2005, dated 2012).

Experiments:
[1] = system: embryonic stem cells (ES) of mice; assay: Embriotoxicity assay: cytotoxic effects on embryonic stem cells; assay type: cell-based; conditions: submicromolar concentrations, between 10^−6 and 10^−7 M; five days
Protocol: Bearing in mind that crotamine is a toxin, cytotoxic effects were tested on embryonic stem cells (ES) of mice which are non-differentiated cells, derived from the embryonic bud of blastocytes, and have as their main characteristic their pluripotence, an ability to differentiate to different types of tissues.
Such cells were chosen bearing in mind the usefulness of crotamine application for gene therapy (by means of stem cells) and transgenesis, as a carrier of other molecules to within cells. Four different concentrations were tested for five days. […] The assay was as follows.
Embryonic bodies (EBs) were obtained by the hanging drop method, as described above, using culture medium containing crotamine at various concentrations (100 μM to 0.1 μM), changing the medium every two to three days. To analyze the crotamine location in EBs under development, crotamine was substituted with crotamine linked to Cy3 (Cy3-crotamine) during the final 24 hours of incubation. Compact murine morulae (8-16 cells) were obtained from the oviduct and cultivated for 24 hours at 37° C. in 5% CO2, in individual microwells of V-bottom plates (Costar) with […] microwells in M16 medium (supplier: Sigma) and Cy3-crotamine (1-0.1 μM). After 24 hours of culture, normally developed blastocyst numbers were compared within the control and the experimental group.

chromosomes = assay: Chromosome analysis; assay type: cell-based; conditions: 1 μM, compared with DAPI or 5-BrDU staining
Protocol: 1 μM crotamine conjugated to Cy3 was added to the culture of ES-USP1 cells, human lymphoblastoids and primary fibroblasts for 1, 3, 6 and 24 hours. Cells were collected and treated according to the routine cytogenetic protocol, with no addition of colchicine. Digital images were obtained with refrigerated CCD (PCO, VC44) and processed by using ISIS software (MetaSystem).

[2] = system: linear and/or circular double strand DNA; assay: DNA-peptide interaction by agarose gel electrophoresis (gel shift assay); assay type: binding; conditions: various molar proportions, FIG. 6
Protocol: The interaction between crotamine and DNA was analysed by an interference assay for DNA migration in agarose gel. 1 μg DNA and an increasing concentration of crotamine was added in a total volume of 25 μl, containing 150 mM NaCl. Twenty minutes after the mixture was prepared, samples were analysed by agarose gel electrophoresis (1%), using Tris-borate-EDTA buffer, followed by visualization by staining the nucleic acid with the ethidium bromide.
The formation of the complex between the peptide and DNA was analysed by the electrophoretic mobility of the complex in agarose gel (1%, w/v) by varying the molar proportions between the peptide and the double-strand DNA. Tests were made by mixing plasmid DNA (2 or 4 μg) with 10 μg of pure crotamine, in the presence or absence of 150 mM NaCl, which were applied on agarose gel immersed in Tris borate-EDTA buffer. DNA was then observed after staining with ethidium bromide and using UV light transiluminator. Gel documentation after electrophoresis was made by using an image digitizer (model FLA3000). This system of electrophoresis allows to observe changes in the migration pattern (migration delay) due to the neutralization of nucleic acid by cationic peptide present and/or due to the formation of larger complexes between crotamine and DNA (FIG. 6). […]

[3] = system: human limfoblastoids, B16 murine melanoma cells, HCT116 colon cancer cells, human mesenchymal stem cells from bone marrow and dental pulp; assay: In vitro transfection with crotamine-DNA aggregates; assay type: cell-based

YKQCHKKGGHCFPKEKICLPPSSDFGKMDCRWRWK CCKKGSG (YKQCHKKGGHCFPKEKICLPPSSDFGKMDCRWRWKCCKKGSG; UniProt Q9PWF3 23-64, looked up) [crotamine]
cytotoxic effect on embryonic stem cells in culture [1]: does not present any cytotoxic effect | binding to chromosomes (chromosomes): binds to chromosomes in the metaphase | effect of complex formation on electrophoretic mobility in agarose gel [2]: interfere in the electrophoretic mobility | result of in vitro transfection [3]: positive results
